According to the METLIN SMRT retention time set (Domingo-Almenara et al. 2019):

Assay: gradient 5% acetonitrile 3 min, to 50% in 2 min, to 85% in 15 min, held 3 min, 100 µL/min
Settings: column: Zorbax Extend-C18 2.1 x 50 mm; eluents: water / acetonitrile, 0.1% formic acid
Outline: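 A Zorbax Extend-C18 column (2.1 × 50 mm, 1.8 μm) run at 100 μL/min with water and acetonitrile, both containing 0.1% formic acid, separated mixtures of ~100 pure standards. The HPLC was coupled to a quadrupole time-of-flight mass spectrometer operated in positive and negative ionization mode, with dead and dwell volumes of 40 μL and 900 μL. Each retention time was taken from a computationally picked adduct peak that was then manually inspected.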

Row | SMILES | RP-LC retention time [s]
1 | Cc1ccccc1C(=O)Nc1nc(-c2ccc3c(c2)N(C)C(=O)CO3)c(C)s1 | 1050
2 | COC(=O)c1cccc(NC(=O)NCCn2nnc3cc(S(=O)(=O)N(C)C)ccc32)c1 | 732
3 | Cc1nc(C)c(-c2ccc(SCC(=O)N3CCCc4ccccc43)nn2)s1 | 779
4 | O=C(C1CCN(c2cc(N3CCCCC3)ncn2)CC1)N1CCCCCC1 | 661
5 | COc1ccc(-c2nnc(N3CCC(C(=O)NCC4CCCCC4)CC3)o2)cc1 | 887
6 | O=C1CCc2cc(S(=O)(=O)N3CCCC3C(=O)N3CCN(c4ccccc4)CC3)ccc2N1 (stereo unspecified) | 713
7 | Cc1ccc(NC(=O)N2CCCC2c2cc(C)no2)c(Cl)c1 (stereo unspecified) | 880
8 | CCN(CC)S(=O)(=O)c1ccc2c(c1)CC(C(=O)N1CCN(C3CCCCC3)CC1)N2C(C)=O (stereo unspecified) | 666
9 | CCC1CCCCN1C(=O)c1cnc2nc(C)ccc2c1Nc1ccc2c(c1)OCO2 (stereo unspecified) | 623
10 | COc1ccc(OCc2nn3c(COc4ccc(F)cc4)nnc3s2)cc1 | 928
11 | Cc1cccc(Sc2nccnc2N2CCC(C(=O)NC3CCCCC3)CC2)c1 | 1150
12 | Cn1c(=O)c(=O)n(C)c2cc(Oc3ccccc3)c(NC(=O)C3CCCCC3)cc21 | 870
13 | CCc1ccc(NC(=O)N2CCC(CN3CCCC(C)C3)CC2)cc1 (stereo unspecified) | 662
14 | COCc1noc(C2CCCCN2C(=O)c2cnccn2)n1 (stereo unspecified) | 596
15 | CCSc1nnc(-c2nn(C)c3c2CN(S(=O)(=O)c2ccc(C)c(F)c2)CC3)n1CC | 1000
16 | O=S(=O)(c1cccc(-c2cn3ccccc3n2)c1)N1CCCC1 | 607
17 | Fc1cc(F)cc(Cc2nc3nccc(-c4ccccc4)n3n2)c1 | 926
18 | COc1cccc(N2CCN(S(=O)(=O)c3cc(-c4nc(C)cs4)cs3)CC2)c1 | 1070
19 | CCc1nc2c(NC(=O)Cc3cccnc3)cccn2n1 | 556
20 | CSc1cccc(NC(=O)N2CC(c3nc(C)no3)C3(CCOCC3)C2)c1 (stereo unspecified) | 760
21 | Cc1ccccc1C(=O)NCCCn1cccc1 | 762
22 | CCOC(=O)c1cc(S(=O)(=O)N2CCCC2C(=O)N2CCCCCC2)cn1C (stereo unspecified) | 822

Row | SMILES | RP-LC retention time [s]
23 | CCOC(=O)c1c(S(=O)(=O)N2CCC(C(=O)Nc3ccc(OCC)cc3)CC2)c(C)n(C)c1C | 853
24 | Cc1ccc(N2CCN(c3nc(C(=O)O)cs3)CC2)cc1 | 770
25 | COc1ccc(Cl)cc1NC(=O)CSc1nnc2c3cc(-c4ccc(F)cc4)nn3ccn12 | 996
26 | CCCNS(=O)(=O)c1cc(-c2nnc(-c3ccc(OC)c(OC)c3)o2)ccc1C | 901
27 | Cc1nn(-c2ccccc2)c(C)c1S(=O)(=O)N1CCC(C(=O)Nc2ccccc2)CC1 | 926
28 | Cc1ccccc1Nc1c(-c2cccc(Cl)c2)nc2c(C)cccn12 | 802
29 | COc1ccc(-c2nc(NCCN(Cc3ccco3)C3CCCC3)c3ccccc3n2)cc1 | 604
30 | O=C1N=C(N2CCN(Cc3ccc(F)cc3)CC2)S/C1=C\c1cccc(O)c1 | 585
31 | O=C(NCCCN1CCCC1=O)c1nc2ccccn2c1-c1ccc(Cl)cc1 | 690
32 | Clc1ccc(-c2nc3ncccn3c2Nc2ccccc2)cc1 | 818
33 | CCC(C)C1Nc2ccc(C(=O)NCCCOC)cc2NC1=O (stereo unspecified) | 653
34 | C=CCNCc1ccc(-c2cccc(C(F)(F)F)c2)o1 | 714
35 | c1ccc(-c2cnn3cc(-c4ccc(OCCN5CCOCC5)cc4)cnc23)cc1 | 818
36 | COc1ccc(CCNC(=O)C2CCc3nc(N4CCCC4)ncc3C2)cc1OC (stereo unspecified) | 563
37 | O=C(C1CCN(S(=O)(=O)c2cc(-c3noc(C4CCC4)n3)cs2)CC1)N1CCCCCC1 | 1050
38 | O=C(c1ccc2ncnc(N3CCCC3)c2c1)N1CCCCC1 | 577
39 | CC(C)NC(=O)c1ccc(OCC2CCN(C(=O)c3ccsc3)CC2)cc1 | 797
40 | CCCN1CCN(C(=O)C2Cc3cc(S(=O)(=O)N(CC)CC)ccc3N2C(C)=O)CC1 (stereo unspecified) | 610
41 | COc1ccc(-n2c(=O)c(C(=O)NCc3cc(F)cc(F)c3)c(O)c3cccnc32)cc1 | 1170
42 | CCNc1nc(-c2ccc(Br)cc2)cs1 | 887
43 | O=c1ccc(-n2ccnc2)nn1CCNS(=O)(=O)Cc1cc(F)ccc1F | 555
44 | CCCNc1cc(N2CCC(CCC(=O)NCc3ccccc3OC)CC2)ncn1 | 684

Row | SMILES | RP-LC retention time [s]
45 | CCN(CC)CCNC(=O)c1ccc2cnn(Cc3ccc(F)cc3)c2c1 | 650
46 | O=C(Cc1nnc(-c2ccc3ncccc3c2)o1)Nc1ccc(OC(F)(F)F)cc1 | 806
47 | CN(C)CCNC(=O)CN1C(=O)C2CCCCN2c2ccc(C(=O)N3CCCC3)cc21 (stereo unspecified) | 596
48 | COc1ccc(OC)c(CNS(=O)(=O)c2cc(-c3cnn4c(C)cc(C)nc34)ccc2OC)c1 | 935
49 | Cc1ccsc1C(=O)N1CC(Oc2ccc(-c3nc(-c4ccccc4)no3)cc2)C1 | 1250
50 | Cc1[nH]c(C)c(S(=O)(=O)N2CCC(C(=O)NCc3cccs3)CC2)c1C(=O)N1CCCC1 | 664
51 | CC1CCN(C(=O)Cn2nc(C(=O)N3CCCC3)c3ccccc32)CC1 | 846
52 | COc1ccc(S(=O)(=O)N2CC3CN(C(=O)C4CCCCC4)CC(C2)O3)cc1 | 850
53 | CCC(C)NC(=O)Cn1c2ccccc2c2ncn(Cc3nc(-c4ccccc4)no3)c(=O)c21 (stereo unspecified) | 882
54 | O=C(c1cn(-c2cc(N3CCOCC3)ncn2)cn1)N1CCSCC1 | 685
55 | O=[N+]([O-])c1ccc(-c2csc(Nc3ccccc3)n2)cc1 | 1130
56 | CC(C(=O)Nc1cc(F)ccc1F)C1CCN(C(=O)Nc2ccccc2)CC1 (stereo unspecified) | 867
57 | Cc1nc(-c2nnn(-c3ccccc3)c2C)sc1C(=O)NCCc1cccs1 | 936
58 | O=C(Cn1cccc(-c2nc(-c3ccccc3)no2)c1=O)Nc1ccc(Br)cc1 | 968
59 | Cc1c(-c2nnc(C(=O)NCCN3CCCCCC3)o2)oc2ccccc12 | 667
60 | CCc1ccc(-c2noc(Cn3cnc4c(cnn4-c4cc(Cl)ccc4C)c3=O)n2)cc1 | 1210
61 | COCCNC(=O)c1cc2c(=O)n(Cc3ccccc3)ccc2s1 | 719
62 | Cc1ccc(CNC(=O)CNS(=O)(=O)c2cc(-c3noc(C)n3)sc2C)cc1 | 847
63 | Brc1cccc(-c2noc(Cc3nnc(-c4ccccc4)o3)n2)c1 | 1090
64 | CCc1nc2cc3c(cc2n1CC(=O)Nc1ccc(C)cc1)OCCO3 | 678
65 | CCn1c(=O)n(CC(=O)N2CCOCC2)c(=O)c2cnc(-c3ccc(Cl)cc3)nc21 | 934
66 | COc1ccc(C2Cn3nnc(-c4nc(-c5cccc(Br)c5)no4)c3CO2)cc1 (stereo unspecified) | 1170
